In publication PMC8224398, “SARS-CoV-2 mutations in MHC-I-restricted epitopes evade CD8^+ T cell responses” (Science Immunology, 2021):

What was measured:
HLA-A*02:01 = HLA-A*02:01 (Homo sapiens, UniProt P04439, D140Y/D185E/D98H/E176V/E277Q/G131W/G231S/I119V/I121R/I166T/I218V/L300P/L318F/N151K/N90K/P208A/P217A/Q86G/Q94H/R138H/R169H/T345S); type: binding
HLA-B*40:01 = HLA-B*40:01 (Homo sapiens, UniProt P01889, A65T/A93T/A95T/D138N/D98Y/E176V/E69K/N87E/Q56L/Q94N/R180L/S121R/S35A/S48T/T167S/V36M/W171L/Y33H/Y91S); type: binding
[1] = system: autologous EBV+ B cells pulsed with peptide; type: cell-based, human; conditions: 5 h at 37°C

Sequence | binding to HLA-A*02:01 (thermal stability of the peptide-MHC-I complex, DSF) (HLA-A*02:01) | binding to recombinant HLA-B*40:01 (DSF) (HLA-B*40:01) | killing of EBV+ B cells pulsed with the peptide by wild type YLQ expanded PBMCs [1] | killing of peptide-pulsed EBV+ B cells by PBMCs expanded with the peptide [1]
LALLLLDRL | did neither observe binding |  |  | 
LFFNKVTLA | non-binder |  |  | 
LQLPQGTTL | did neither observe binding |  |  | 
MEVTPSGTWL | not to HLA-A*02:01 | specific binding |  | 
YFQPRTFLL [YLQ mutant] | weak binder |  | failed to kill | failed to kill both wild type and mutant peptide pulsed EBV^+ B cells
YLQPRTFLL [YLQ wildtype] |  |  | specific killing | 
